From publication PMC5936891, “A focused library synthesis and cytotoxicity of quinones derived from the natural product bolinaquinone” (Royal Society Open Science, 2018)
Entries after “also recorded” stand apart in the source; their conditions may differ. Like-named read-outs stand apart in the source and are kept apart here.

Columns and labels:
[1] = tested on: SMA (spontaneous murine astrocytoma); experiment: MTT in vitro growth inhibition assay, SMA; type: cell-based; details: Mus musculus; for inhibition at 25 µM: 25 µM of drug, 72 h, read-out: Percentage of Cell Growth Inhibition SMA; for GI50: 72 h drug exposure
[2] = tested on: HT29 (colon carcinoma); experiment: MTT in vitro growth inhibition assay, HT29; type: cell-based; details: Homo sapiens; for inhibition at 25 µM: HT-29, 25 µM of drug, 72 h, read-out: Percentage of Cell Growth Inhibition HT29; for GI50: HT-29, 72 h drug exposure
[3] = tested on: A2780 (ovarian carcinoma); experiment: MTT in vitro growth inhibition assay, A2780; type: cell-based; details: Homo sapiens; for inhibition at 25 µM: 25 µM of drug, 72 h, read-out: Percentage of Cell Growth Inhibition A2780; for GI50: 72 h drug exposure
[4] = tested on: panel of 11 cancer cell lines and one normal cell line; experiment: Cytotoxicity across the whole cell line panel (MTT); type: cell-based; details: for activity at the initial screening concentration (to proceed to GI50 determination): 25 µM single dose
Source text: With the desired bolinaquinone analogues 12–43 in hand, we examined their cytotoxicity against a panel of 11 tumour cell lines: HT29 (colon carcinoma), U87 and SJ-G2 (glioblastoma), MCF-7 (breast carcinoma), A2780 (ovarian carcinoma), H460 (lung carcinoma), A431 (skin carcinoma), Du145 (prostate carcinoma), BE2-C (neuroblastoma), MIA (pancreatic carcinoma), SMA (spontaneous murine astrocytoma) and a normal breast cell line (MCF10A). The inclusion of the MCF-10A cell line allowed a determination of a crude measure of relative toxicity while noting that the ultimate arbiter of toxicity requires in vivo evaluation. All analogues were initially screened at a 25 µM drug concentration.
Stock solutions were prepared as follows and stored at −20°C: drugs were stored as 40 mM solutions in DMSO. All cell lines were cultured in a humidified atmosphere 5% CO2 at 37°C. The cancer cell lines were maintained in Dulbecco's modified Eagle's medium (DMEM) (Trace Biosciences, Australia) supplemented with 10% fetal bovine serum, 10 mM sodium bicarbonate, penicillin (100 IU ml^−1), streptomycin (100 µg ml^−1) and glutamine (4 mM). The non-cancer MCF10A cell line was cultured in DMEM:F12 (1 : 1) cell culture media, 5% heat-inactivated horse serum, supplemented with penicillin (50 IU ml^−1), streptomycin (50 µg ml^−1), 20 mM Hepes, L-glutamine (2 mM), epidermal growth factor (20 ng ml^−1), hydrocortisone (500 ng ml^−1), cholera toxin (100 ng ml^−1) and insulin (10 ug ml^−1).
Cells in logarithmic growth were transferred to 96-well plates. Cytotoxicity was determined by plating cells in duplicate in 100 µl medium at a density of 2500–4000 cells per well. On day 0 (24 h after plating), when the cells were in logarithmic growth, 100 μl of medium with or without the test agent was added to each well. After 72 h, drug exposure growth inhibitory effects were evaluated using the MTT (3-[4,5-dimethylthiazol-2-yl]-2,5-diphenyl-tetrazolium bromide) assay and the absorbance read at 540 nm. Percentage growth inhibition was determined at a fixed drug concentration of 25 µM. A value of 100% is indicative of complete cell growth inhibition. Those analogues showing appreciable percentage growth inhibition underwent further dose–response analysis allowing for the calculation of a GI50 value. This value is the drug concentration at which cell growth is 50% inhibited based on the difference between the optical density values on day 0 and those at the end of drug exposure.

[5] = tested on: U87 (glioblastoma); experiment: MTT in vitro growth inhibition assay, U87; type: cell-based; details: for inhibition at 25 µM: 25 µM of drug, 72 h, read-out: Percentage of Cell Growth Inhibition U87; for GI50: 72 h drug exposure
[6] = tested on: H460 (lung carcinoma); experiment: MTT in vitro growth inhibition assay, H460; type: cell-based; details: Homo sapiens; for inhibition at 25 µM: NCI-H460, 25 µM of drug, 72 h, read-out: Percentage of Cell Growth Inhibition H460; for GI50: NCI-H460, 72 h drug exposure
[7] = tested on: MCF10A (normal breast cell line); experiment: MTT in vitro growth inhibition assay, MCF10A; type: cell-based; details: Homo sapiens, MCF-10A; for inhibition at 25 µM: 25 µM of drug, 72 h, read-out: Percentage of Cell Growth Inhibition MCF10A; for GI50: normal breast cell line, 72 h drug exposure
[8] = tested on: Du145 (prostate carcinoma); experiment: MTT in vitro growth inhibition assay, Du145; type: cell-based; details: Homo sapiens; for inhibition at 25 µM: DU-145, 25 µM of drug, 72 h, read-out: Percentage of Cell Growth Inhibition Du145; for GI50: DU-145, 72 h, 72 h drug exposure
[9] = tested on: MCF-7 (breast carcinoma); experiment: MTT in vitro growth inhibition assay, MCF-7; type: cell-based; details: Homo sapiens; for inhibition at 25 µM: MCF7, 25 µM of drug, 72 h, read-out: Percentage of Cell Growth Inhibition MCF-7; for GI50: MCF7, 72 h drug exposure
[10] = tested on: MIA (pancreatic carcinoma); experiment: MTT in vitro growth inhibition assay, MIA; type: cell-based; details: for inhibition at 25 µM: 25 µM of drug, 72 h, read-out: Percentage of Cell Growth Inhibition MIA; for GI50: 72 h drug exposure
[11] = tested on: BE2-C (neuroblastoma); experiment: MTT in vitro growth inhibition assay, BE2-C; type: cell-based; details: Homo sapiens, BE(2)-C, 72 h; for inhibition at 25 µM: 25 µM of drug, read-out: Percentage of Cell Growth Inhibition BE2-C; for GI50: 72 h drug exposure
[12] = tested on: A431 (skin carcinoma); experiment: MTT in vitro growth inhibition assay, A431; type: cell-based; details: Homo sapiens; for inhibition at 25 µM: A-431, 25 µM of drug, 72 h, read-out: Percentage of Cell Growth Inhibition A431; for GI50: A-431, 72 h, 72 h drug exposure
[13] = tested on: SJ-G2 (glioblastoma); experiment: MTT in vitro growth inhibition assay, SJ-G2; type: cell-based; details: for inhibition at 25 µM: 25 µM of drug, 72 h, read-out: Percentage of Cell Growth Inhibition SJ-G2; for GI50: 72 h drug exposure
[14] = average over the cell line panel, read-out: average GI50
[15] = span over the cell line panel, read-out: GI50 values across the cell lines examined (range)

Row | Compound | inhibition at 25 µM [1] [%] | GI50 [1] [µM] | inhibition at 25 µM [2] [%] | GI50 [2] [µM] | inhibition at 25 µM [3] [%] | GI50 [3] [µM] | activity at the initial screening concentration (to proceed to GI50 determination) [4] | GI50 [4, 14] [µM] | inhibition at 25 µM [5] [%] | GI50 [5] [µM] | inhibition at 25 µM [6] [%] | GI50 [6] [µM] | inhibition at 25 µM [7] [%] | inhibition at 25 µM [8] [%] | inhibition at 25 µM [9] [%] | inhibition at 25 µM [10] [%] | inhibition at 25 µM [11] [%] | melting point [°C] | inhibition at 25 µM [12] [%] | inhibition at 25 µM [13] [%] | other results
1 | CCCNC1=CC(=O)C(NCCC)=C(c2ccccc2-c2ccccc2)C1=O [compound 41, 3-(Biaryl-2-yl)-2,5-bis-(propylamino)cyclohexa-2,5-diene-1,4-dione] | 68 ± 6 | 3.3 ± 1 | 75 ± 2 | 1.9 | 68 ± 2 | 2 ± 0.1 | sufficient activity | 2.5 | 82 ± 3 | 5.1 ± 1 | 62 ± 1 | 2.3 ± 0.1 | 83 ± 2 | 71 ± 2 | 70 ± 3 | 76 ± 1 | 74 ± 7 | 177 to 179 | 90 ± 1 | 60 ± 2 | potency enhancement over parent analogue ([4]; 41 vs parent 29, 43 vs parent 33, on introduction of amine substituents): greater than or equal to 20 fold; GI50 [7]: 1.7 ± 0.2 µM; GI50 [8]: 1.9 ± 0.1 µM; GI50 [9]: 2 ± 0.1 µM; GI50 [10]: 1.9 µM; GI50 [11]: 1.9 µM; GI50 [12]: 2 ± 0.1 µM; GI50 [13]: 3.5 ± 1 µM
2 | COC1=CC(=O)C(OC)=C(c2ccc(OC)c(OC)c2)C1=O [compound 23, 2,5-Dimethoxy-3-(3,4-dimethoxyphenyl)cyclohexa-2,5-diene-1,4-dione] | > 100 | 3.9 ± 0.54 | > 100 | 11 ± 0.17 | > 100 | 3.8 ± 0.75 | – | 10.2 | > 100 | 9.5 ± 1.2 | 77 ± 4 | 15 ± 2 | 62 ± 4 | 81 ± 4 | > 100 | > 100 | > 100 | 135 to 137 | 95 ± 4 | > 100 | cytotoxicity spectrum across the panel [4]: broad-spectrum active; GI50 [4, 15]: 3 to 15 µM; GI50 [7]: 19 ± 1.3 µM; GI50 [8]: 13 ± 0.58 µM; GI50 [9]: 6.1 ± 1.1 µM; GI50 [10]: 4.8 ± 0.91 µM; GI50 [11]: 3 ± 0.35 µM; GI50 [12]: 13 ± 0.58 µM; GI50 [13]: 12 ± 0.67 µM
3 | COC1=CC(=O)C(OC)=C(c2ccc(-c3ccccc3)cc2)C1=O [compound 27, 3-Biphenyl-4-yl-2,5-dimethoxycyclohexa-2,5-diene-1,4-dione] | 61 ± 6 | 19 ± 4.2 | 76 ± 2 | 4.3 ± 0.1 | 70 ± 3 | 4.3 ± 0.1 | – | 10.2 | 54 ± 5 | 19 ± 2.3 | 48 ± 3 | 19 ± 2.5 | 63 ± 1 | 57 ± 7 | 65 ± 2 | 70 ± 1 | 98 ± 4 | 178 to 180 | 78 ± 1 | 38 ± 3 | GI50 [4, 15]: 3.9 to 19 µM; GI50 [7]: 3.9 ± 0.1 µM; GI50 [8]: 4.1 ± 0.1 µM; GI50 [9]: 4 ± 0.1 µM; GI50 [10]: 4.5 ± 0.13 µM; GI50 [11]: 4.1 ± 0.1 µM; GI50 [12]: 5.7 ± 0.45 µM; GI50 [13]: 31 ± 0.9 µM
4 | COC1=CC(=O)C(OC)=C(c2cccc(OC)c2OC)C1=O [compound 22, 2,5-Dimethoxy-3-(2,3-dimethoxyphenyl)cyclohexa-2,5-diene-1,4-dione] | 31 ± 7 | – | 15 ± 1 | – | 44 ± 8 | – | not sufficiently active | – | 14 ± 8 | – | 20 ± 2 | – | 18 ± 2 | 23 ± 9 | 16 ± 10 | 24 ± 4 | 75 ± 8 | 122 to 125 | 35 ± 5 | 23 ± 10 | –
5 | COC1=CC(=O)C(OC)=C(c2cc3ccccc3s2)C1=O [compound 26, 3-(Benzo[b]thiophen-2-yl)-2,5-dimethoxycyclohexa-2,5-diene-1,4-dione] | 60 ± 3 | – | 70 ± 2 | – | 61 ± 1 | – | not sufficiently active; also recorded: did not proceed to GI50 determination | – | 42 ± 5 | – | 49 ± 8 | – | 65 ± 4 | 66 ± 5 | 79 ± 4 | 59 ± 2 | 72 ± 3 | 205 to 207 | 75 ± 1 | 42 ± 3 | –
6 | COC1=CC(=O)C(OC)=C(c2ccc3ccccc3c2)C1=O [compound 24, 2,5-Dimethoxy-3-(naphthalene-3-yl)cycloheza-2,5-diene-1,4-dione] | 31 ± 10 | – | < 10 | – | 54 ± 15 | – | not sufficiently active; also recorded: inactive | – | 15 ± 4 | – | 12 ± 4 | – | 13 ± 6 | 11 | 22 ± 6 | < 10 | 65 ± 20 | 137 to 139 | < 10 | 20 ± 4 | –
7 | COC1=CC(=O)C(OC)=C(c2cccc(OC)c2)C1=O [compound 19, 3-(3-Methoxyphenyl)-2,5-dimethoxycyclohexa-2,5-diene-1,4-diene] | 40 ± 8 | – | 13 ± 4 | – | 60 ± 11 | – | not sufficiently active | – | 20 ± 5 | – | 19 ± 1 | – | 15 ± 3 | 24 ± 6 | 36 ± 14 | 20 ± 6 | 70 ± 5 | 72 to 75 | 22 ± 2 | 26 ± 12 | –
8 | COC1=CC(=O)C(OC)=C(c2ccccc2OC)C1=O [compound 18, 3-(2-Methoxyphenyl)-2,5-dimethoxycyclohexa-2,5-diene-1,4-diene] | 34 ± 8 | – | 13 ± 6 | – | 33 ± 6 | – | not sufficiently active | – | 15 ± 2 | – | 22 ± 2 | – | 15 ± 5 | 14 ± 8 | 22 ± 9 | 19 ± 5 | 75 ± 9 | 162 to 164 | 28 ± 4 | 17 ± 8 | –
